The values below come from US7163957B2, “3-(Cyclopenten-1-yl)-benzyl-or 3-(cyclopenten-1-yl)-heteroarylmethyl-amine derivatives and use thereof as medicines for treating schizophrenia” (Pierre Fabre Medicament, priority 2002, dated 2007).

Structures can show the parent of a compound that is named as a salt. Where only a bound is given, the exact number is not on record here.

For orientation: ED50 means the midpoint of the dose-response relation. What is called melting point is the temperature, or range, at which the solid turns liquid.

One data set deals with catalepsy. The experiment in a line: Cataleptigenic effects (catalepsy). Format: in vivo. Conditions: rats; for ED50: rat, in vivo, oral route; for cataleptigenic effects (in words): high doses (i.e. 40 mg/kg). The text has this:
4—Evaluation of the cataleptigenic effects of the compounds of the invention.

For data set [1], the target named is D2 receptors (Homo sapiens, UniProt P14416). The experiment in a line: Affinity for the D2 receptors, displacement of (3H) YM-09151-2. The format is binding. To be noted: for Ki: displacement of (3H) YM-09151-2, mean of at least 3 experiments, read-out: D2 pKi (converted). The text has this:
1—Measurement of the affinity of the compounds of the invention for the D2 receptors.
The pKi values, (pKi=−log Ki), are given in the form of the mean±SEM of at least 3 experiments.

The target in a further data set is T1, 5-HT1A receptors (Homo sapiens, UniProt P08908).
T1 sequence (P08908 1-422): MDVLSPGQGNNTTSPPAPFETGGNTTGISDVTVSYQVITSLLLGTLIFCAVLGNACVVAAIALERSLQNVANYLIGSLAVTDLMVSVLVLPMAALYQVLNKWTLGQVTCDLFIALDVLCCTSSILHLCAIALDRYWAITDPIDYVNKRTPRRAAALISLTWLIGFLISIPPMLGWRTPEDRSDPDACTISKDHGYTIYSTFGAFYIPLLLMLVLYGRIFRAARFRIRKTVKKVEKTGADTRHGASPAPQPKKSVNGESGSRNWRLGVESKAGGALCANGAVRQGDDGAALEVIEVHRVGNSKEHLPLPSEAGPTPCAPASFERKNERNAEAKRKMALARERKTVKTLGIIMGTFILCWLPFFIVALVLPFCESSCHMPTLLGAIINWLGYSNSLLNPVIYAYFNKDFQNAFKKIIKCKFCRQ
In words: Affinity for the 5-HT1A receptors, displacement of [3H]8-OH-DPAT. Conditions: for Ki: displacement of [3H]8-OH-DPAT, mean of at least 3 experiments, read-out: 5-HT1A pKi (converted). Format: binding. The method, then: 2—Measurement of the affinity of the compounds of the invention for the 5-HT1A receptors.
The affinity in vitro of the compounds of the invention for the receptors of the 5-HT1A subtype was determined by measuring the displacement of [^3H]8-OH-DPAT (TRK 850; 160-240 Ci/mmol).
The pKi values, (pKi =−log Ki), are given in the form of the mean±SEM of at least 3 experiments.
A general note: Displacement assays read how much labelled ligand stays bound in the presence of the test substance.

Data set [2] has as its system D2 receptors. In words: Antagonist activity of the D2 receptors in vivo: inhibition of the behavior induced by methylphenidate. To be noted: Rattus norvegicus, rats, oral route, read-out: Normalization ED50. The text has this: 3—Evaluation of the antagonist activity of the D2 receptors in vivo.

D2 receptors (Homo sapiens, UniProt P14416), sequence (P14416 whole entry): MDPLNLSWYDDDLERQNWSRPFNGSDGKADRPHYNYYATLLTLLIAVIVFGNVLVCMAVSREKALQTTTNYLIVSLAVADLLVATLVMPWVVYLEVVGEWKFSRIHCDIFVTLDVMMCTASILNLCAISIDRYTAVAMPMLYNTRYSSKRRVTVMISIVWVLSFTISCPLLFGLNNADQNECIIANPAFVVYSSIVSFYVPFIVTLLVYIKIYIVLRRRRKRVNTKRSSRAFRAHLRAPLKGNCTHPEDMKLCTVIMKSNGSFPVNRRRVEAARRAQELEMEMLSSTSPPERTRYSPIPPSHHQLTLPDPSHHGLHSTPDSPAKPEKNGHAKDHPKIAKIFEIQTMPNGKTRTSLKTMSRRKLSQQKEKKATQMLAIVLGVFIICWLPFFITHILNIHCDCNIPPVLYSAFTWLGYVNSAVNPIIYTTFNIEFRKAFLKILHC

Consider `CC1(C)Cc2cccc(OCCNCc3cccc(C4=CCCC4)c3)c2O1` [Compound 1a, [2-(2,2-Dimethyl-2,3-dihydrobenzofuran-7-yloxy)ethyl]-(3-cyclopenten-1-ylbenzyl)amine], for which the ED50 was over 40 mg/kg in the data set with catalepsy and 1.3 mg/kg with D2 receptors [2]. For the same compound, in the data set on catalepsy, the “cataleptigenic effects (in words)” value was “free of any cataleptigenic effects”. In addition, the Ki on D2 receptors [1] was 0.316 nM; on 5-HT1A receptors, 6.31 nM. Besides, at 5-HT1A receptors, the “affinity for the 5-HT1A receptors (in words)” value is “high affinity”.

On to `C1=C(c2cccc(CNCCOc3cccc4ccoc34)c2)CCC1` (as salt: fumarate) [Compound 1c, [2-(Benzofuran-7-yloxy)ethyl]-(3-cyclopenten-1-ylbenzyl)amine], for which the melting point was 126 °C.

As for `C1=C(c2cccc(CNCCOc3cccc4c3OC3(CC3)C4)c2)CCC1` [Compound 1f], in the data set on catalepsy, the ED50 is over 40 mg/kg and the “cataleptigenic effects (in words)” value is given as “free of any cataleptigenic effects”. Besides, on D2 receptors [1], the Ki is 0.631 nM. At 5-HT1A receptors, the “affinity for the 5-HT1A receptors (in words)” value was “high affinity” and the Ki is 6.31 nM. The ED50 with D2 receptors [2] stood at 0.63 mg/kg.

`C1=C(c2cccc(CNCCOc3cccc4c3OC3(CC3)C4)c2)CCC1` (as salt: maleate) [Compound 1f] came in with a melting point of 180 °C.

As for `CC1(C)Cc2cccc(OCCNCc3cccc(C4=C(F)CCC4)c3)c2O1` (as salt: fumarate) [Compound 1g, [2-(2,2-Dimethyl-2,3-dihydrobenzofuran-7-yl-oxy)ethyl]-[3-(2-fluorocyclopenten-1-yl)benzyl]amine], the melting point was 145 °C.

As for `CC1(C)Cc2cccc(OCCNCc3cccc(C4=CCCC4)c3)c2O1` (as salt: fumarate) [Compound 1a, [2-(2,2-Dimethyl-2,3-dihydrobenzofuran-7-yloxy)ethyl]-(3-cyclopenten-1-ylbenzyl)amine], the melting point amounted to 146 °C.

Consider `C1=C(c2cccc(CNCCOc3cccc4c3OCC4)c2)CCC1` (as salt: fumarate) [Compound 1e, [2-(2,3-Dihydrobenzofuran-7-yloxy)ethyl]-(3-cyclopenten-1-ylbenzyl)amine], for which the melting point stood at 118 °C.

Regarding `CC1(C)Cc2cccc(OCCNCc3cncc(C4=CCCC4)c3)c2O1` (as salt: fumarate) [Compound 1b, [2-(2,2-Dimethyl-2,3-dihydrobenzofuran-7-yl-oxy)ethyl]-(5-cyclopenten-1-ylpyridin-3-ylmethyl)amine], the melting point amounted to 141 °C.

Turning to `CNc1cc(OC)c(C(=O)NC2CCN(Cc3ccccc3)C2C)cc1Cl` (stereo not shown) [nemonapride, reference compound], the ED50 with catalepsy stood at 5 mg/kg; with D2 receptors [2], 1.5 mg/kg. On 5-HT1A receptors, the “affinity for the 5-HT1A receptors (in words)” value is recorded as “high affinity”.

In the case of `O=C(CCCN1CCC(O)(c2ccc(Cl)cc2)CC1)c1ccc(F)cc1` [haloperidol, reference compound], the ED50 was 0.92 mg/kg in the data set with catalepsy and 0.46 mg/kg with D2 receptors [2]. Besides, on 5-HT1A receptors, the “affinity for the 5-HT1A receptors (in words)” value is listed as “low affinity”.

With `Cc1nc2n(c(=O)c1CCN1CCC(c3noc4cc(F)ccc34)CC1)CCCC2` [Risperidone, risperidone, reference compound], the “affinity for the D2 receptors (in words)” value on D2 receptors [1] was “good affinity”. At 5-HT1A receptors, the “affinity for the 5-HT1A receptors (in words)” value was “low affinity”. The ED50 in the data set with D2 receptors [2] came out at 6.5 mg/kg.

Consider `Cc1cc2cccc(OCCNCc3cccc(C4=CCCC4)c3)c2o1` (as salt: fumarate) [Compound 1d, [2-(2-Methylbenzofuran-7-yloxy)ethyl]-(3-cyclopenten-1-ylbenzyl)amine], for which the melting point was 133 °C.
